# Measurements reported in patent US20130252988A1, “COMPOSITIONS AND METHODS FOR TREATING MYELOFIBROSIS” (TARGEGEN, INC., priority 2010, published 2013).
# Entries after “also recorded” stand apart in the source; their conditions may differ. Where a name gives a salt, the structure may show the parent alone. Read-outs that look alike come from different tables or passages of the source.
# Key:
# Assay type in all cases: in vivo, human
# [1] = Plasma pharmacokinetics of TG101348, non-compartmental analysis; conditions: for Tmax: median
# Procedure: The concentration-time curves of TG101348 in plasma were evaluated by a non-compartmental analysis (with the use of WinNonlin® software, version 5.2).
# [2] = system: subjects with myelofibrosis (palpable splenomegaly); experiment: Palpable spleen size / splenomegaly response (IWG-MRT criteria); parameters: Clinical improvement (IWG response), subjects by 20 weeks: reference not given here; conditions: for Subjects with =50% decrease in palpable spleen size persistent for at least 8 weeks (Clinical Improvement, CI) / Subjects with a minimum 25% decrease in palpable spleen size: by cycle 6; for Subjects with a minimum 25% decrease in palpable spleen size: intent-to-treat; for Subjects with spleen response (CI): by cycle 12
# Procedure: Responses were measured every 4 weeks per International Working Group for MPN Research and Treatment (IWG-MRT) criteria (Tefferi A et al., Blood 108:1497-1503, 2006). Assessment of bone marrow histology was performed at baseline and every 24 weeks of therapy. Changes in JAK2V617F allele burden in the granulocyte fraction of peripheral blood were measured as previously described (Kittur J et al., Cancer 109:2279-2284, 2007); the assessments were at baseline and every 4 weeks during the first 6 cycles, and every 6th cycle of therapy in the extension study.
# [3] = system: WBC count; experiment: Leukocytosis: WBC count; conditions: for Subjects who achieved a normal WBC count: following 6 cycles; for Subjects with normal WBC counts: following 12 cycles
# [4] = system: platelet count; experiment: Thrombocytosis: platelet count; conditions: for Subjects who achieved a normal platelet count: after 6 cycles; for Subjects with a normal platelet count: following 12 cycles
# [5] = Body weight during study treatment
# [6] = system: IL-6, IL-8, IL-2 and TNF-a; experiment: Cytokine levels, multiplexed sandwich ELISAs
# Procedure: Samples for cytokine measurement were collected at baseline and every 4 weeks thereafter. Cytokine levels were measured using multiplexed sandwich ELISAs (Millipore, St. Charles, Mo.).
# [7] = human, plasma, oral, 800 mg/day (n = 5), multiple daily doses, Cycle 1, Day 28, mean
# [8] = over a 27-fold increase in dose
# [9] = 680 mg/day starting dose (N=37)
# [10] = MTD cohort, subjects who completed 6 cycles
smiles,measurement,setting,value
"Cc1cnc(Nc2ccc(OCCN3CCCC3)cc2)nc1Nc1cccc(S(=O)(=O)NC(C)(C)C)c1 [TG101348, N-tert-butyl-3-[(5-methyl-2-{[4-(2-pyrrolidin-1-ylethoxy)phenyl]amino}pyrimidin-4-yl)amino]benzenesulfonamide dihydrochloride monohydrate]",Cmax,"[1]; human, plasma, oral, 680 mg/day (n = 27), multiple daily doses, Cycle 1, Day 28, mean",3060 ng/mL
same,half-life,"[1]; human, plasma, oral, 680 mg/day (n = 27), multiple daily doses, Cycle 1, Day 28, mean, read-out: T1/2 (terminal half-life) (converted)",33.7 h
same,Tmax,"[1]; human, plasma, oral, 680 mg/day (n = 27), multiple daily doses, Cycle 1, Day 28",4 h
same,AUC(0-t),[1]; [7],70800 ng·h/mL
same,Cmax,[1]; [7],4380 ng/mL
same,half-life,"[1]; human, plasma, oral, 800 mg/day (n = 5), multiple daily doses, Cycle 1, Day 28, mean, read-out: T1/2 (terminal half-life) (converted)",24 h
same,Tmax,"[1]; human, plasma, oral, 800 mg/day (n = 5), multiple daily doses, Cycle 1, Day 28",2.25 h
same,half-life,"[1]; human, plasma, oral, across all doses, read-out: Terminal phase half-life at steady state",16 to 34 h
same,Time after dosing at which peak plasma concentration was achieved,"[1]; oral, once daily",1 to 4 h
same,Increase in mean steady-state AUC0-t,[1]; [8],~88 fold
same,Increase in mean steady-state Cmax,[1]; [8],approximately 54 fold
same,"Clinical improvement (IWG response), subjects by 12 weeks",[2]; [9],56%
same,"Clinical improvement (IWG response), subjects by 20 weeks",[2]; [9],100%
same,Subjects who achieved clinical improvement based on reduction of palpable splenomegaly (IWG response),[2]; [9],49%
same,Complete response of splenomegaly,[2]; Example 2 conclusions,~30%
same,Proportion achieving =50% reduction in palpable splenomegaly,[2]; Example 2 conclusions,two-thirds
same,Mean (standard deviation) duration of spleen response per IWG-MRT criteria,[2]; MTD cohort,288 (±76) days
same,Median time to CI,"[2]; MTD cohort, range 41-170",113 days
same,Subjects in whom the spleen became non palpable,[2]; [10],31%
same,Subjects with =25% reduction in palpable spleen size,[2]; [10],90%
same,Subjects with =50% reduction in palpable spleen size,[2]; [10],66%
same,Subjects with JAK2V617F-negative MF who achieved CI,[2]; Three of 4 subjects who completed 6 cycles,75%
same,Median time to CI,"[2]; across doses, range 41 to 171",141 days
same,Patients with reduction in palpable spleen size of at least 50%,"[2]; at 3 months, 33 patients who started at =680 mg and completed at least 3 cycles, 22 patients",67%
same,Patients in whom the spleen became non-palpable,"[2]; at 3 months, 33 patients who started at =680 mg, 9 patients",27%
same,Relapse or disease progression,[2]; at the time of data collection (Example 2),no relapse or disease progression
same,"Subjects with =50% decrease in palpable spleen size persistent for at least 8 weeks (Clinical Improvement, CI)",[2]; MTD cohort,45%
same,Subjects with a minimum 25% decrease in palpable spleen size,[2]; MTD cohort,65%
same,"Subjects with =50% decrease in palpable spleen size persistent for at least 8 weeks (Clinical Improvement, CI)",[2]; overall,39%
same,Subjects with a minimum 25% decrease in palpable spleen size,[2]; overall (36 subjects),61%
same,Subjects with spleen response (CI),[2]; MTD cohort,50%
same,Subjects with spleen response (CI),[2]; overall,48%
same,Lowest starting dose at which CI was observed,[2]; in vivo,240 mg/day
same,Palpable spleen size after treatment,"[2]; one subject with JAK2V617F-positive PMF, started at 680 mg/day, 9 cm before",0 cm
same,Mean (standard deviation) duration of spleen response per IWG-MRT criteria,[2]; overall,315 (±129) days
same,Onset of spleen response,"[2]; rapid, generally seen within",≤ 2 cycles
same,Patients with a normal WBC count at last follow-up visit,"[3]; Example 1, leukocytosis at baseline, started at =680 mg",70%
same,Subjects with normal WBC counts at follow-up visit,"[3]; Example 2, baseline WBC count >11×10^9/L",73%
same,Anti-myeloproliferation activity: resolution of leukocytosis and thrombocytosis,[3]; Example 2 conclusions,virtually all treated subjects experiencing complete resolution of leukocytosis and thrombocytosis
same,Subjects who achieved a normal WBC count,[3]; MTD cohort (13 of 18),72%
same,Subjects who achieved a normal WBC count,[3]; across doses (16 of 28 with baseline leukocytosis),57%
same,Subjects with normal WBC counts,[3]; MTD cohort (10 of 17),59%
same,Subjects with normal WBC counts,[3]; across doses (14 of 25),56%
same,Subjects who achieved a normal platelet count,[4]; MTD cohort (7 with baseline thrombocytosis),100%
same,Subjects who achieved a normal platelet count,[4]; across doses (10 with baseline thrombocytosis),90%
same,Effect on platelet counts in thrombocytosis,[4]; baseline platelet count >450×10^9/L,able to reduce platelet counts
same,Subjects with a normal platelet count,"[4]; MTD cohort, all of 6",6 subjects
same,Subjects with a normal platelet count,[4]; across doses (7 of 8),88%
same,"Weight, change from baseline, median","[5]; 6 Cycles, MTD Cohort (n = 28)",0.6 kg
same,"Weight, median","[5]; 6 Cycles, MTD Cohort (n = 28)",77.7 kg
same,"Weight, change from baseline, median","[5]; 6 Cycles, Overall (n = 43)",0.4 kg
same,"Weight, median","[5]; 6 Cycles, Overall (n = 43)",76.9 kg
same,"Weight, change from baseline, median","[5]; 12 Cycles, MTD Cohort (n = 26)",0.35 kg
same,"Weight, median","[5]; 12 Cycles, MTD Cohort (n = 26)",76.5 kg
same,"Weight, change from baseline, median","[5]; 12 Cycles, Overall (n = 36)",0.7 kg
same,"Weight, median","[5]; 12 Cycles, Overall (n = 36)",76.1 kg
same,Median body weight relative to baseline,"[5]; end of 6 and 12 cycles, overall and MTD cohorts",stable relative to baseline
same,Serum EPO and TPO levels relative to baseline,"[6]; after treatment initiation, data not shown",increases in serum EPO and to a lesser extent TPO levels
same,Absolute difference in IL-2 from baseline,"[6]; cycle 6, 1 subject (101-039)",-1827 pg/mL
same,Absolute difference in IL-6 from baseline,"[6]; cycle 6, 1 subject (101-039)",-4719 pg/mL
same,"Effect on levels of pro-inflammatory cytokines (IL-6, IL-2, IL-8, TNF-a)","[6]; relative to baseline during treatment, dihydrochloride monohydrate",no significant changes on cytokine levels; also recorded: minimal effect on serum levels of proinflammatory cytokines; also recorded: no consistent changes
